Results published in patent US20220194997A1, “SUMO PEPTIDES FOR TREATING NEURODEGENERATIVE DISEASES” (The Chinese University of Hong Kong, priority 2019, published 2022).
Where no end group is shown, it is not given here.

Experiments:
α-synuclein [1] = molecular target: T1, α-synuclein (Homo sapiens, UniProt P37840); experiment: Fibrillation (Thioflavin T) assay of SDS-induced α-synuclein aggregation; type: biochemical
T1 construct: made in house; host or cells: Escherichia coli BL21(DE3), pET-28a (NcoI/XhoI)
Protocol: The reaction contained the mixture of 70 μM α-synuclein and different concentrations of SUMO1 variants, 40 μM Thioflavin T (ThT) (Sigma-Aldrich), 0.4 mM SDS in reaction buffer (20 mM HEPES, 150 mM NaCl, pH 7.4). Reactions were performed in quadruplicate in a black clear-bottomed 96-well plate (Nunc, Thermo Fisher Scientific) with a final volume of 150 μL. The plate was sealed with sealing membrane (Thermo Fisher Scientific) and loaded into an Infinite M1000 plate reader (Tecan), incubated at 37° C. without agitation. The fluorescence was detected at 30 min intervals, with excitation at 450 nm and with emission at 485 nm. Protein samples were analyzed after fibrillation assay using size-exclusion chromatography on a Superdex 200 GL 5/150 column (3 ml, GE Healthcare) in reaction buffer.
Sodium dodecyl sulfate (SDS) was added to mimic membrane environments and serve as nucleation scaffold to stimulate α-synuclein aggregation (Giehm et al., 2010).
Thioflavin T (ThT) assay was performed as previously described^5 with minor modifications. […] The potential pre-formed aggregates in α-synuclein were removed by centrifugation at 15,000 rpm for 15 min and filtering through a 0.2 μm filter before the experiments. Reactions were performed in a black clear-bottomed 96-well plate (Nunc, Thermo Fisher Scientific) sealed with clear adhesive sealing sheet (Thermo Fisher Scientific) to avoid evaporation and loaded into an Infinite® M1000 plate reader (Tecan), incubated at 37° C. for 7 days without agitation. The fluorescence was recorded at 485 nm with excitation wavelength of 450 nm at the interval of 30 min.

α-synuclein [2] = molecular target: T1, α-synuclein; experiment: Microscale thermophoresis (MST) binding
Protocol: The labelling reaction was performed according to the manufacturer's instructions. Unreacted dye was removed with the dye removal column supplied in the Protein Labelling Kit RED-NHS (NanoTemper Technologies) or desalting column (Bio-Rad). […] The labelled targets were adjusted to appropriate concentration for detection. The ligands were dissolved in reaction buffer and a series of 16 1:1 dilutions was prepared. For the measurement, each ligand dilution was mixed with one volume of labelled protein target. After 10 min incubation, the samples were loaded into standard or premium Monolith NT.115 Capillaries (NanoTemper Technologies). MST was measured using a Monolith NT.115 instrument (NanoTemper Technologies) at an ambient temperature of 25° C. Instrument parameters were adjusted to 20% LED power and medium MST power. Data of three independently pipetted measurements were analyzed (MO.Affinity Analysis software version 2.1.3, NanoTemper Technologies) using the signal from an MST-on time of 5 s.
Unreacted dye was removed with desalting column (2K MWCO, Bio-Rad). The purity was monitored by measuring the ratio of protein to dye after the clean-up procedure. […]

SH-SY5Y cells = experiment: Cellular uptake of Alexa 488 labelled peptide, confocal microscopy; type: cell-based; conditions: 1 h and 24 h, time course
Protocol: SH-SY5Y cells were planted on 35 mm glass bottom confocal dishes and incubated overnight. After co-incubation with Alexa 488 labelled R8-SUMO1(31-55), cells were fixed with 4% paraformaldehyde for 15 min at room temperature at different time points and visualized by Leica TCS SP8 confocal microscope with 63X oil immersion objective.

[3] = tested on: α-synuclein-A30P transgenic Drosophila; experiment: Climbing assay after larval feeding; type: in vivo; conditions: larval feeding 60, 120 or 240 μM, pilot study
From the text: (§1) The following fly strains were adopted in this study: gmr-GAL4 (RRID: BDSC_1104), elav-GAL4 (RRID: BDSC_458), UAS-α-synuclein-A30P (RRID: BDSC_8147), and UAS-α-synuclein-A53T (RRID: BDSC_8148). All strains were obtained from the Bloomington Drosophila Stock Center. To obtain PD model flies, virgin flies carrying the driver gmr-GAL4 or elav-GAL4 on X chromosome were crossed to males from UAS-α-synuclein-A30P/UAS-α-synuclein-A53T stocks. The progeny of these crosses was maintained on standard cornmeal medium supplemented with dry yeast in 25° C. incubator.
(§2) Climbing assay was performed according to previously described^10. Briefly, a group of 10 flies from each condition were placed in individual plastic vial, and gently tapped to the bottom of the vail. The number of flies that could climb a height of 2 cm within 15 s was recorded. Each trial was repeated five times with 1 min recovery periods between each trials. Total 20 (10 males and 10 females) flies from each condition were tested for one genetic cross.

[4] = tested on: α-synuclein-A53T transgenic Drosophila; experiment: Climbing assay after larval feeding; type: in vivo; conditions: larval feeding 60, 120 or 240 μM, pilot study
From the text: as §1, §2

[5] = tested on: α-synuclein (wild-type) transgenic Drosophila; experiment: Climbing assay after larval feeding; type: in vivo; conditions: larval feeding 60, 120 or 240 μM, pilot study
[6] = equimolar ratio (1:1), 70 μM α-synuclein, 37° C., 7 days

CC[C@H](C)[C@H](NC(=O)[C@H](Cc1ccc(O)cc1)NC(=O)[C@H](CCC(=O)O)NC(=O)CNC(=O)[C@H](CCC(=O)O)NC(=O)[C@H](CCCCN)NC(=O)[C@H](CCCCN)NC(=O)[C@@H](N)CC(=O)O)C(=O)N[C@@H](CCCCN)C(=O)N[C@@H](CC(C)C)C(=O)N[C@@H](CCCCN)C(=O)N[C@H](C(=O)N[C@H](C(=O)NCC(=O)N[C@@H](CCC(N)=O)C(=O)N[C@@H](CC(=O)O)C(=O)N[C@@H](CO)C(=O)N[C@@H](CO)C(=O)N[C@@H](CCC(=O)O)C(=O)N[C@H](C(=O)N[C@@H](Cc1c[nH]cn1)C(=O)N[C@@H](Cc1ccccc1)C(=O)N[C@@H](CCCCN)C(=O)N[C@H](C(=O)N[C@@H](CCCCN)C(=O)N[C@@H](CCSC)C(=O)N[C@H](C(=O)N[C@H](C(=O)N[C@@H](Cc1c[nH]cn1)C(=O)N[C@@H](CCC(=O)O)C(=O)N[C@@H](CCCCN)C(=O)N[C@@H](CCCCN)C(=O)N[C@@H](CCCNC(=N)N)C(=O)N[C@@H](CCCCN)C(=O)N[C@@H](CCC(=O)O)C(=O)N[C@@H](CO)C(=O)N[C@@H](Cc1ccc(O)cc1)C(=O)N[C@@H](CS)C(=O)N[C@@H](CCC(N)=O)C(=O)N[C@@H](CCCNC(=N)N)C(=O)N[C@@H](CCC(N)=O)C(=O)O)[C@@H](C)O)[C@@H](C)O)C(C)C)[C@@H](C)CC)[C@@H](C)CC)C(C)C [SUMO1(15-55) (L44E, L47R)]
inhibition of α-synuclein aggregation (α-synuclein [1]; [6]): much weaker inhibition effect
binding ability to α-synuclein compared with that of SUMO1(15-55) (α-synuclein [2]): around 1/40

His-SUMO1(31-55): SUMO1(31-55) with an N-terminal 10×His tag ({10xHis tag}-SSEIHFKVKMTTHLKKLKESYCQRQ; UniProt P63165 31-55, looked up, fragment)
inhibition of α-synuclein aggregation (α-synuclein [1]; ratio of 1:5 or 1:10 α-synuclein: SUMO peptide inhibitor): partial inhibition

RRRRRRRRSSEIHFKVKMTTHLKKLKESYCQRQ [R8-SUMO1(31-55)]
internalization into cells (SH-SY5Y cells): internalization into SH-SY5Y cells at a high efficiency

SUMO1(20-40): SUMO1 derived peptide, residues 20-40 (EYIKLKVIGQDSSEIHFKVKM; UniProt P63165 20-40, looked up, fragment)
inhibition of α-synuclein aggregation (α-synuclein [1]; [6]): not effective

SUMO1(31-55): residues 31-55 of human SUMO1, a beta sheet followed by an alpha-helix (SSEIHFKVKMTTHLKKLKESYCQRQ)
locomotor dysfunction (climbing) [3]: improved the locomotor dysfunction
locomotor dysfunction (climbing) [4]: improved the locomotor dysfunction
locomotor dysfunction (climbing) [5]: improved the locomotor dysfunction

SUMO2(16-51): residues 16-51 of human SUMO2, identical sequence to SUMO3(15-50) (DHINLKVAGQDGSVVQFKIKRHTPLSKLMKAYCERQ; UniProt P61956 16-51, looked up, fragment)
inhibition of α-synuclein aggregation (α-synuclein [1]; [6]): suppressed
delay of the initiation of the aggregation (α-synuclein [1]; half molar ratio): 2 days
